Source: ChEMBL document CHEMBL1157938, “Cytotoxicity and inhibition of DNA topoisomerase I of polyhydroxylated triterpenoids and triterpenoid glycosides” (Bioorg Med Chem Lett, 2010)
Activity calls are given as the source filed them. No cut-off for these calls is given here.

Experiments:
PANC-1 [1] = experiment: Cytotoxicity against human PANC1 cells after 48 hrs by WST8 assay; assay type: functional; details: PANC-1, 48 h
[2] = molecular target: T1, DNA topoisomerase 1 (Homo sapiens) (UniProt P11387); experiment: Inhibition of human DNA topoisomerase 1 assessed as stabilize DNA-enzyme covalent complex
T1 sequence (whole entry): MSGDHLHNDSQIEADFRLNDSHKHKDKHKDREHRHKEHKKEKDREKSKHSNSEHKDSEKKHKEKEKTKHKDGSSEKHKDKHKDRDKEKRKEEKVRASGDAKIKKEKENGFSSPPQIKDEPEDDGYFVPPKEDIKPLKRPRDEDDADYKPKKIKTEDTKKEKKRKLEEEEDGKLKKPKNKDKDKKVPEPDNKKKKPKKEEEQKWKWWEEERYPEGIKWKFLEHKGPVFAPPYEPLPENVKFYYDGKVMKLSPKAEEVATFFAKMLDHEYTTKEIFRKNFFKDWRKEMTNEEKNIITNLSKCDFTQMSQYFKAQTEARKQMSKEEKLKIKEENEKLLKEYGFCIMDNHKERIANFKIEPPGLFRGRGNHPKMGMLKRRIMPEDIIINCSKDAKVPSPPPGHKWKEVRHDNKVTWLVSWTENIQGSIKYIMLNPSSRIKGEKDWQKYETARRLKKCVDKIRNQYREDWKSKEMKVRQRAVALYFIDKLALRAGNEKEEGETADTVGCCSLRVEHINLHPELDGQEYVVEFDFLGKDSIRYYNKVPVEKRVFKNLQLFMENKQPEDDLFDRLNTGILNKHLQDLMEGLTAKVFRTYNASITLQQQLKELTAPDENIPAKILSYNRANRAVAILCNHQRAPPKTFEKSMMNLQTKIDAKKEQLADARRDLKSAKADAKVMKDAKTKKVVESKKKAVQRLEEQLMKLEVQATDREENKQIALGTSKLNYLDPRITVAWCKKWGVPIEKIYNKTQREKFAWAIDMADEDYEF

[3] = Cytotoxicity against human MRC5 cells after 48 hrs by WST8 assay; assay type: cell-based
HL-60 [4] = experiment: Cytotoxicity against human HL60 cells after 48 hrs by WST8 assay; assay type: functional; details: HL-60, 48 h
[5] = molecular target: T1, DNA topoisomerase 1 (Homo sapiens); experiment: Inhibition of human DNA topoisomerase 1-mediated relaxation of supercoiled DNA at 63 to 125 uM
DNA topoisomerase 1 [6] = molecular target: T2, DNA topoisomerase 1 (Homo sapiens, UniProt P11387); experiment: Inhibition of human DNA topoisomerase 1 at free enzyme state
T2 sequence (P11387 whole entry): T1 sequence (whole entry)

[7] = molecular target: DNA topoisomerase 2-alpha (Homo sapiens, UniProt P11388); experiment: Inhibition of human DNA topoisomerase 2-mediated relaxation of supercoiled DNA by gel electrophoresis
Chain of DNA topoisomerase 2-alpha (P11388 whole entry): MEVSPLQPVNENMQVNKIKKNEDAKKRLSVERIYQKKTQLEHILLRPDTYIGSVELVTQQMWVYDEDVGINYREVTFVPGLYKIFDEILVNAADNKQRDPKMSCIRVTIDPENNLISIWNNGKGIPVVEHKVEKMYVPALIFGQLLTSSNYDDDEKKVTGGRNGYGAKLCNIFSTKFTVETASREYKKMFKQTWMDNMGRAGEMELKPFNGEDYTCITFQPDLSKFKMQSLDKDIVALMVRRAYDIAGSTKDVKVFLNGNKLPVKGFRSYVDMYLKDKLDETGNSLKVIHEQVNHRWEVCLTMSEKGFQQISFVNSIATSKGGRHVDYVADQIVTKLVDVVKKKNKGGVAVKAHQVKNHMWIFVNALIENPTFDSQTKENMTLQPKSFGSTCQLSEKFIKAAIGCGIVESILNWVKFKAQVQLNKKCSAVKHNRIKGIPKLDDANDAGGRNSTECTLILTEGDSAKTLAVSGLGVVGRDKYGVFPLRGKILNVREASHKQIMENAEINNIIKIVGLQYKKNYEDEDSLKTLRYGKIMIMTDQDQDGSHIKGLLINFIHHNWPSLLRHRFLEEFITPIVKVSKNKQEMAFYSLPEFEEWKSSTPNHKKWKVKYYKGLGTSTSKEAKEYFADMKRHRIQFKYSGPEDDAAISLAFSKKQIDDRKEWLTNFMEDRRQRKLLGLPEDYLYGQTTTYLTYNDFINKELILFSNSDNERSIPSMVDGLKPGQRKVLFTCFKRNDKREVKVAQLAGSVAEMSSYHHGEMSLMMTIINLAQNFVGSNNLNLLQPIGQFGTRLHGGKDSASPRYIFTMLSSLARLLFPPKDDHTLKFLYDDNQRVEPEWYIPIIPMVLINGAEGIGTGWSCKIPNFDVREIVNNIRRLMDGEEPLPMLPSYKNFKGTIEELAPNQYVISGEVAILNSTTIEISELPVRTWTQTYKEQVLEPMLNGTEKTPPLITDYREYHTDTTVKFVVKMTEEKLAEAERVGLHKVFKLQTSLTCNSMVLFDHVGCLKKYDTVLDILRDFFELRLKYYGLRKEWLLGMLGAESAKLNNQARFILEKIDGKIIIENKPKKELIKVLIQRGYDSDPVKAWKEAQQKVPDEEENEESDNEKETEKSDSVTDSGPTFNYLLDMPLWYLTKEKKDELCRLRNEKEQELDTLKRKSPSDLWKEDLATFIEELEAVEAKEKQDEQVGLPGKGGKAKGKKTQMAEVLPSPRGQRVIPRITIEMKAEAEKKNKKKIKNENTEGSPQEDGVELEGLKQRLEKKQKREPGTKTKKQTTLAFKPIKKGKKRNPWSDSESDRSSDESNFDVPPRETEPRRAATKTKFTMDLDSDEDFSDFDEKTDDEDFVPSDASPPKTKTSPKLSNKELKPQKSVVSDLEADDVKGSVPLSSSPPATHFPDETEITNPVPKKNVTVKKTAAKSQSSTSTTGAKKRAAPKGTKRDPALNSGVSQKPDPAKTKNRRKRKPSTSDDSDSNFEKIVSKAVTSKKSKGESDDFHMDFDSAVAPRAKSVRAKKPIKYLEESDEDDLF

A549 [8] = experiment: Cytotoxicity against human A549 cells after 48 hrs by WST8 assay; assay type: functional; details: A549, 48 h
DNA topoisomerase 1 [9] = molecular target: T2, DNA topoisomerase 1; experiment: Inhibition of human DNA topoisomerase 1-mediated relaxation of supercoiled DNA by gel electrophoresis
PC-3 [10] = experiment: Cytotoxicity against human PC3 cells after 48 hrs by WST8 assay; assay type: functional; details: PC-3, 48 h
[11] = molecular target: T1, DNA topoisomerase 1 (Homo sapiens); experiment: Inhibition of human DNA topoisomerase 1 assessed as prevention of DNA-enzyme complex formation
[12] = molecular target: T1, DNA topoisomerase 1 (Homo sapiens); experiment: Inhibition of human DNA topoisomerase 1-mediated relaxation of supercoiled DNA at 312 uM
MRC5 = experiment: Cytotoxicity against human MRC5 cells at 25 uM after 48 hrs by WST8 assay; assay type: cell-based; details: mrc5, 48 h
PANC-1 [13] = experiment: Cytotoxicity against human PANC1 cells at 25 uM after 48 hrs by WST8 assay; assay type: functional, cell-based
[14] = molecular target: T1, DNA topoisomerase 1 (Homo sapiens); experiment: Inhibition of human DNA topoisomerase 1 assessed as intercalate into DNA at 312 uM
A549 [15] = experiment: Cytotoxicity against human A549 cells at 25 uM after 48 hrs by WST8 assay; assay type: functional, cell-based
PC-3 [16] = experiment: Cytotoxicity against human PC3 cells at 25 uM after 48 hrs by WST8 assay; assay type: functional, cell-based
HL-60 [17] = experiment: Cytotoxicity against human HL60 cells at 25 uM after 48 hrs by WST8 assay; assay type: functional, cell-based

SMILES | GI50 (PANC-1 [1]) [µM] | inhibition [2] | GI50 at 48 h [3] [µM] | GI50 (HL-60 [4]) [µM] | inhibition [5] | IC50 (DNA topoisomerase 1 [6]) [µM] | IC50 [7] [µM] | GI50 (A549 [8]) [µM] | IC50 (DNA topoisomerase 1 [9]) [µM] | GI50 (PC-3 [10]) [µM] | inhibition [11] | inhibition [12] | growth inhibition (GI) (MRC5) | growth inhibition (GI) (PANC-1 [13]) | Activity [14] | growth inhibition (GI) (A549 [15]) | growth inhibition (GI) (PC-3 [16]) | growth inhibition (GI) (HL-60 [17])
C/C=C(/C)C(=O)O[C@H]1[C@H](OC(=O)/C(C)=C\C)[C@]2(CO)[C@H](O)C[C@]3(C)C(=CC[C@@H]4[C@@]5(C)CC[C@H](O[C@@H]6O[C@H](C(=O)O)[C@@H](O)[C@H](O[C@@H]7O[C@@H](CO)[C@H](O)[C@H]7O)[C@H]6O[C@@H]6O[C@H](CO)[C@@H](O)[C@H](O)[C@H]6O)[C@](C)(CO)[C@@H]5CC[C@]43C)[C@@H]2CC1(C)C | 11.1 | inactive | 5.5 | 1.94 | Active | 23.8 | > 250 | 6.36 | 53 | 1.6 | Active | – | – | – | – | – | – | –
C/C=C(/C)C(=O)O[C@H]1[C@H](OC(=O)/C(C)=C\C)[C@]2(CO)[C@H](O)C[C@]3(C)C(=CC[C@@H]4[C@@]5(C)CC[C@H](O)[C@](C)(CO)[C@@H]5CC[C@]43C)[C@@H]2CC1(C)C | 4.63 | – | 1.65 | 2.72 | – | – | > 250 | 1.94 | > 250 | 2.39 | – | – | – | – | – | – | – | –
C/C=C(/C)C(=O)O[C@H]1[C@H](OC(=O)/C(C)=C\C)[C@]2(CO)[C@H](O)[C@H](O)[C@]3(C)C(=CC[C@@H]4[C@@]5(C)CC[C@H](O[C@@H]6O[C@H](C(=O)O)[C@@H](O)[C@H](O[C@@H]7O[C@@H](CO)[C@H](O)[C@H]7O)[C@H]6O[C@@H]6O[C@H](CO)[C@H](O)[C@H](O)[C@H]6O)C(C)(C)[C@@H]5CC[C@]43C)[C@@H]2CC1(C)C | 21.5 | inactive | 5.26 | 16.9 | Active | 23.8 | > 250 | 4.58 | 32.7 | 14.3 | Active | – | – | – | – | – | – | –
C/C=C(/C)C(=O)O[C@H]1[C@H](OC(=O)C(C)CC)[C@]2(CO)[C@H](O)[C@H](O)[C@]3(C)C(=CC[C@@H]4[C@@]5(C)CC[C@H](O)C(C)(C)[C@@H]5CC[C@]43C)[C@@H]2CC1(C)C (some centres not stated) | 12.8 | – | 6.53 | 4.21 | – | – | > 250 | 5.37 | > 250 | 12.5 | – | – | – | – | – | – | – | –
C/C=C(/C)C(=O)O[C@H]1[C@H](O)[C@]2(CO)[C@H](O)C[C@]3(C)C(=CC[C@@H]4[C@@]5(C)CC[C@H](O[C@@H]6O[C@H](C(=O)O)[C@@H](O)[C@H](O[C@@H]7O[C@@H](CO)[C@H](O)[C@H]7O)[C@H]6O[C@@H]6O[C@H](CO)[C@@H](O)[C@H](O)[C@H]6O)[C@](C)(CO)[C@@H]5CC[C@]43C)[C@@H]2CC1(C)C [AESCULIOSIDE IIB] | – | – | – | – | – | – | – | – | – | – | – | inactive | Not Active | inactive | Active | inactive | inactive | inactive
C/C=C(/C)C(=O)O[C@H]1[C@H](OC(C)=O)[C@]2(CO)[C@H](O)C[C@]3(C)C(=CC[C@@H]4[C@@]5(C)CC[C@H](O[C@@H]6O[C@H](C(=O)O)[C@@H](O)[C@H](O[C@@H]7O[C@@H](CO)[C@H](O)[C@H]7O)[C@H]6O[C@@H]6O[C@H](CO)[C@@H](O)[C@H](O)[C@H]6O)[C@](C)(CO)[C@@H]5CC[C@]43C)[C@@H]2CC1(C)C [AESCULIOSIDE III] | 14.8 | – | 12.8 | 8.37 | – | – | > 250 | 20.1 | > 250 | 9.54 | – | – | – | – | – | – | – | –
C/C=C(/C)C(=O)O[C@H]1[C@H](OC(=O)C(C)CC)[C@]2(CO)[C@H](O)[C@H](O)[C@]3(C)C(=CC[C@@H]4[C@@]5(C)CC[C@H](O[C@@H]6O[C@H](C(=O)O)[C@@H](O)[C@H](O[C@@H]7O[C@@H](CO)[C@H](O)[C@H]7O)[C@H]6O[C@@H]6O[C@H](CO)[C@H](O)[C@H](O)[C@H]6O)C(C)(C)[C@@H]5CC[C@]43C)[C@@H]2CC1(C)C (some centres not stated) [AESCULIOSIDE IVA] | 17.6 | inactive | 4.78 | 7.26 | Active | 23.8 | > 250 | 9.91 | 51.8 | 9.22 | Active | – | – | – | – | – | – | –
C/C=C(/C)C(=O)O[C@H]1[C@H](OC(C)=O)[C@]2(CO)[C@H](O)[C@H](O)[C@]3(C)C(=CC[C@@H]4[C@@]5(C)CC[C@H](O[C@@H]6O[C@H](C(=O)O)[C@@H](O)[C@H](O[C@@H]7OC[C@@H](O)[C@H](O)[C@H]7O)[C@H]6O[C@@H]6O[C@H](CO)[C@@H](O)[C@H](O)[C@H]6O)C(C)(C)[C@@H]5CC[C@]43C)[C@@H]2CC1(C)C [ERYNGIIOSIDE J] | 11.5 | – | 5.61 | 7.36 | – | – | > 250 | 4.3 | > 250 | 5.08 | – | – | – | – | – | – | – | –
C/C=C(/C)C(=O)O[C@H]1[C@H](OC(C)=O)[C@]2(CO)[C@H](O)C[C@]3(C)C(=CC[C@@H]4[C@@]5(C)CC[C@H](O[C@@H]6O[C@H](C(=O)O)[C@@H](O)[C@H](O[C@@H]7OC[C@H](O)[C@H](O)[C@H]7O)[C@H]6O[C@@H]6O[C@H](CO)[C@@H](O)[C@H](O)[C@H]6O)C(C)(C)[C@@H]5CC[C@]43C)[C@@H]2CC1(C)C [ERYNGIIOSIDE L] | 13 | – | 8.71 | 8.41 | – | – | > 250 | 8.35 | > 250 | 11.3 | – | – | – | – | – | – | – | –
C/C=C(/C)C(=O)O[C@H]1[C@H](O)[C@]2(CO)[C@H](O)[C@H](O)[C@]3(C)C(=CC[C@@H]4[C@@]5(C)CC[C@H](O[C@@H]6O[C@H](C(=O)O)[C@@H](O)[C@H](O[C@@H]7OC[C@@H](O)[C@H](O)[C@H]7O)[C@H]6O[C@@H]6O[C@H](CO)[C@@H](O)[C@H](O)[C@H]6O)C(C)(C)[C@@H]5CC[C@]43C)[C@@H]2CC1(C)C [ERYNGIOSIDE 94A] | – | – | 8.51 | 9.38 | – | – | > 250 | 7.34 | > 250 | 7.99 | – | inactive | – | inactive | – | – | – | –
CC1(C)C=C2[C@H]3CC[C@@H]4[C@@]5(C)CC[C@H](O)C(C)(C)[C@@H]5CC[C@@]4(C)[C@]3(C)CC[C@@]2(C)CC1 [GERMANICOL] | – | – | – | – | – | – | – | – | – | – | – | inactive | Not Active | inactive | – | inactive | inactive | inactive
C/C=C(/CC)C(=O)O[C@H]1[C@H](OC(C)=O)[C@]2(CO)[C@H](O)[C@H](O)[C@]3(C)C(=CC[C@@H]4[C@@]5(C)CC[C@H](O[C@@H]6O[C@H](C(=O)O)[C@@H](O)[C@H](O[C@@H]7OC[C@H](O)[C@H](O)[C@H]7O)[C@H]6O[C@@H]6O[C@H](CO)[C@@H](O)[C@H](O)[C@H]6O)C(C)(C)[C@@H]5CC[C@]43C)[C@@H]2CC1(C)C [SANICULASAPONIN III] | 16 | – | 3.54 | 7.11 | – | – | > 250 | 4.73 | > 250 | 8.51 | – | – | – | – | – | – | – | –
CC(=O)O[C@H]1CC[C@]2(C)[C@H]3CC=C4[C@@H]5CC(C)(C)CC[C@]5(C)CC[C@@]4(C)[C@]3(C)CC[C@H]2C1(C)C [beta-AMYRIN ACETATE] | – | – | – | – | – | – | – | – | – | – | – | inactive | Not Active | inactive | – | inactive | inactive | inactive
